Test results taken from US20230257396A1, “MACROCYCLES AND THEIR USE” (BLOSSOMHILL THERAPEUTICS, INC., priority 2020, published 2023).

Legend:
Test in all cases: KINOMEscan kinase binding assay (Eurofins/DiscoveRx), % Ctrl
Conditions in all cases: 1 μM
[1] = target: T1, kinases (Homo sapiens, UniProt P00519, E255K)
T1 construct: purchased Eurofins/DiscoveRx; host or cells: E. coli BL21-derived host (T7 phage display) for most kinases; HEK-293 for the rest
Outline: (§1)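 Competition binding: DNA- or phage-tagged kinases (T7 phage in E. coli BL21, or HEK-293-expressed) with immobilized biotinylated ligand beads and test compound, 1 h at room temperature. Bead-bound kinase eluted and quantified by qPCR; % Ctrl = (compound − positive control)/(negative control − positive control) ×100 at a single compound concentration.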

[2] = target: T2, kinases (Homo sapiens, UniProt P00519, H396P)
T2 construct: purchased Eurofins/DiscoveRx; host or cells: E. coli BL21-derived host (T7 phage display) for most kinases; HEK-293 for the rest
Outline: as §1

[3] = target: T3, kinases (Homo sapiens, UniProt P00519, M351T)
T3 construct: purchased Eurofins/DiscoveRx; host or cells: E. coli BL21-derived host (T7 phage display) for most kinases; HEK-293 for the rest
Outline: as §1

[4] = target: T4, kinases (Homo sapiens, UniProt P00519, Q252H)
T4 construct: purchased Eurofins/DiscoveRx; host or cells: E. coli BL21-derived host (T7 phage display) for most kinases; HEK-293 for the rest
Outline: as §1

[5] = target: T5, kinases (Homo sapiens, UniProt P00519, Y253F)
T5 construct: purchased Eurofins/DiscoveRx; host or cells: E. coli BL21-derived host (T7 phage display) for most kinases; HEK-293 for the rest
Outline: as §1

[6] = target: T6, kinases (Homo sapiens, UniProt P00533)
T6 construct: purchased Eurofins/DiscoveRx; host or cells: E. coli BL21-derived host (T7 phage display) for most kinases; HEK-293 for the rest
Outline: as §1

[7] = target: T7, kinases (Homo sapiens, UniProt P00533, G719S)
T7 construct: purchased Eurofins/DiscoveRx; host or cells: E. coli BL21-derived host (T7 phage display) for most kinases; HEK-293 for the rest
Outline: as §1

[8] = target: T8, kinases (Homo sapiens, UniProt P00533, L861Q)
T8 construct: purchased Eurofins/DiscoveRx; host or cells: E. coli BL21-derived host (T7 phage display) for most kinases; HEK-293 for the rest
Outline: as §1

[9] = target: T9, kinases (Homo sapiens, UniProt P00533, T790M)
T9 construct: purchased Eurofins/DiscoveRx; host or cells: E. coli BL21-derived host (T7 phage display) for most kinases; HEK-293 for the rest
Outline: as §1

[10] = target: T10, kinases (Homo sapiens, UniProt P07949)
T10 construct: purchased Eurofins/DiscoveRx; host or cells: E. coli BL21-derived host (T7 phage display) for most kinases; HEK-293 for the rest
T10 sequence (P07949 29-1114): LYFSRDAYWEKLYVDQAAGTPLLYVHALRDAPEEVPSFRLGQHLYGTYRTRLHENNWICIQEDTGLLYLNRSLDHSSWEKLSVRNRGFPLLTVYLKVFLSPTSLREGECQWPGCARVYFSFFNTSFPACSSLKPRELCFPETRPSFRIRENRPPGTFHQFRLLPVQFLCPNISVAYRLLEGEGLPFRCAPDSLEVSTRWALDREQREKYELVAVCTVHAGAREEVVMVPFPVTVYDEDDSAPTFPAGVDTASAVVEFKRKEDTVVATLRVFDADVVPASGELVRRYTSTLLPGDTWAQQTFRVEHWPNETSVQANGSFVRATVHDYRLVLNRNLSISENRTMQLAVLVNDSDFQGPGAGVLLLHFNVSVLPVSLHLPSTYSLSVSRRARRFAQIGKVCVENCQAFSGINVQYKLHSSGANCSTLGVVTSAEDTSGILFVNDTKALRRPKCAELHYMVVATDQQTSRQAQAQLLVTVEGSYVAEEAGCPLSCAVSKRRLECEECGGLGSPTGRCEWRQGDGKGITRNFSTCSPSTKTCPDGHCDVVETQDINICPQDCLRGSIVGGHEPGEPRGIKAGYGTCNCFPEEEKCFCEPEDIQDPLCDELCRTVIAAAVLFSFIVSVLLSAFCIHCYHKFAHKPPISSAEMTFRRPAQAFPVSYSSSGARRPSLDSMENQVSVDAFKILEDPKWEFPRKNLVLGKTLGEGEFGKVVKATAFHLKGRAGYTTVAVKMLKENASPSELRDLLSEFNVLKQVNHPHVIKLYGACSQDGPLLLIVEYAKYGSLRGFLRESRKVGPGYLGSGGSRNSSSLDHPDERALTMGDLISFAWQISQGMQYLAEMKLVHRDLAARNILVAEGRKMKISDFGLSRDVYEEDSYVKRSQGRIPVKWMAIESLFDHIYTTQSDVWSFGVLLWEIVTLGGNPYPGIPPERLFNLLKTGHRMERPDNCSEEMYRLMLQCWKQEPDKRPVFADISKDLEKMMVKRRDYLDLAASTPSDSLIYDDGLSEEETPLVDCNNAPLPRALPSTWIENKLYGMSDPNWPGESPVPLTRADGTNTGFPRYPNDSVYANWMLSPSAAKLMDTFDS
Outline: as §1

[11] = target: T11, kinases (Homo sapiens, UniProt P07949, V804L)
T11 construct: purchased Eurofins/DiscoveRx; host or cells: E. coli BL21-derived host (T7 phage display) for most kinases; HEK-293 for the rest
T11 sequence (P07949 29-1114 V804L): as the sequence (P07949 29-1114) above, with V776L counted along it
Outline: as §1

[12] = target: T12, kinases (Homo sapiens, UniProt P10721, D816H)
T12 construct: purchased Eurofins/DiscoveRx; host or cells: E. coli BL21-derived host (T7 phage display) for most kinases; HEK-293 for the rest
T12 sequence (P10721 26-976 D816H): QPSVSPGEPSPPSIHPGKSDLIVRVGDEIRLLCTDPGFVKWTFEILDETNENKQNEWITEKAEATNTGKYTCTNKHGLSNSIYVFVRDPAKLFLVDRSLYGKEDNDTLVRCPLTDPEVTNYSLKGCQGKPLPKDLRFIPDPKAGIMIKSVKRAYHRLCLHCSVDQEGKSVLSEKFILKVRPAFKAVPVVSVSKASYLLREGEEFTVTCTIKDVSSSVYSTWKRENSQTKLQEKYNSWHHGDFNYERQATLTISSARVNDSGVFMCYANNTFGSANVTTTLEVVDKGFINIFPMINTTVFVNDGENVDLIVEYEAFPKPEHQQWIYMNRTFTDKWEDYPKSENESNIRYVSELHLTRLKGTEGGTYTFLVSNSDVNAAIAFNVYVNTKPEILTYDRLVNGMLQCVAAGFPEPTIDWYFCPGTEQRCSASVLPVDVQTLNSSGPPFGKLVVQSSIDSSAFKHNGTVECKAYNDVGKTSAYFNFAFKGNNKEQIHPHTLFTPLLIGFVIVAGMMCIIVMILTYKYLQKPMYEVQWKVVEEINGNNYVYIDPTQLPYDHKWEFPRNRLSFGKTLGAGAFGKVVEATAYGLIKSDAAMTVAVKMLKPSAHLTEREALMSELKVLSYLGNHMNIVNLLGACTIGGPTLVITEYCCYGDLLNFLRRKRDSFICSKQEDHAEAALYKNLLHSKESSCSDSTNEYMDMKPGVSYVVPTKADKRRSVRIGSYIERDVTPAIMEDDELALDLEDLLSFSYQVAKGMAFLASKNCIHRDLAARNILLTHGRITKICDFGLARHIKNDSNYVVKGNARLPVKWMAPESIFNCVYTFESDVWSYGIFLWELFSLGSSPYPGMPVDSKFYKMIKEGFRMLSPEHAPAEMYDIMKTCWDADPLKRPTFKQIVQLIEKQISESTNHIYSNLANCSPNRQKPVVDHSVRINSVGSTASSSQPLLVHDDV
Outline: as §1

[13] = target: T13, kinases (Homo sapiens, UniProt P10721, L576P)
T13 construct: purchased Eurofins/DiscoveRx; host or cells: E. coli BL21-derived host (T7 phage display) for most kinases; HEK-293 for the rest
T13 sequence (P10721 26-976 L576P): as the sequence (P10721 26-976 D816H) above, with L551P, H791D counted along it
Outline: as §1

[14] = target: T14, kinases (Homo sapiens, UniProt P36888, D835V)
T14 construct: purchased Eurofins/DiscoveRx; host or cells: E. coli BL21-derived host (T7 phage display) for most kinases; HEK-293 for the rest
T14 sequence (P36888 27-993 D835V): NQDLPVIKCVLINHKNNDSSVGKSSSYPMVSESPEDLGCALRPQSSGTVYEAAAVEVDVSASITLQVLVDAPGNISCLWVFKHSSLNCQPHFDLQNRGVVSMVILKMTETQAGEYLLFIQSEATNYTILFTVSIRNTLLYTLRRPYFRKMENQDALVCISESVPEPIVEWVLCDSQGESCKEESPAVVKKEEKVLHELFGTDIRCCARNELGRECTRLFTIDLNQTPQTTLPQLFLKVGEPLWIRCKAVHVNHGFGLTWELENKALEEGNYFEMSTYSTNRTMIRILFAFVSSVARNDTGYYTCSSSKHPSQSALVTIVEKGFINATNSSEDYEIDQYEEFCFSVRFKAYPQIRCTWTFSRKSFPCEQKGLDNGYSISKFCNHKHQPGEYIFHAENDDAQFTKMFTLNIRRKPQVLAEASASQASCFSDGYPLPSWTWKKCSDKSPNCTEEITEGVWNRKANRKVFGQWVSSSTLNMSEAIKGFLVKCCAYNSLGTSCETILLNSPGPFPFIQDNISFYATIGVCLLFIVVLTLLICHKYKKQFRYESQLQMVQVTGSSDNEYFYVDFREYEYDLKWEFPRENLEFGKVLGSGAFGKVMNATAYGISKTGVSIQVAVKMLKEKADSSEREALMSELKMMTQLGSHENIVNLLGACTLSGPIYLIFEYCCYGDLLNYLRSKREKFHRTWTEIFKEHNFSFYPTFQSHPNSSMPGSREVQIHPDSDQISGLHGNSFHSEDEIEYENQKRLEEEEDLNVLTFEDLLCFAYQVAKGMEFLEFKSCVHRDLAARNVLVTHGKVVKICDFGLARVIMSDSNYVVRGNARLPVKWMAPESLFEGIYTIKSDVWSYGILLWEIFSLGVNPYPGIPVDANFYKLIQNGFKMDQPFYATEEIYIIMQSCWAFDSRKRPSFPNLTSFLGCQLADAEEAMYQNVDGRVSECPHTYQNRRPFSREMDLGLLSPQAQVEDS
Outline: as §1

[15] = target: T15, kinases (Homo sapiens, UniProt P42684)
T15 construct: purchased Eurofins/DiscoveRx; host or cells: E. coli BL21-derived host (T7 phage display) for most kinases; HEK-293 for the rest
T15 sequence (P42684 whole entry): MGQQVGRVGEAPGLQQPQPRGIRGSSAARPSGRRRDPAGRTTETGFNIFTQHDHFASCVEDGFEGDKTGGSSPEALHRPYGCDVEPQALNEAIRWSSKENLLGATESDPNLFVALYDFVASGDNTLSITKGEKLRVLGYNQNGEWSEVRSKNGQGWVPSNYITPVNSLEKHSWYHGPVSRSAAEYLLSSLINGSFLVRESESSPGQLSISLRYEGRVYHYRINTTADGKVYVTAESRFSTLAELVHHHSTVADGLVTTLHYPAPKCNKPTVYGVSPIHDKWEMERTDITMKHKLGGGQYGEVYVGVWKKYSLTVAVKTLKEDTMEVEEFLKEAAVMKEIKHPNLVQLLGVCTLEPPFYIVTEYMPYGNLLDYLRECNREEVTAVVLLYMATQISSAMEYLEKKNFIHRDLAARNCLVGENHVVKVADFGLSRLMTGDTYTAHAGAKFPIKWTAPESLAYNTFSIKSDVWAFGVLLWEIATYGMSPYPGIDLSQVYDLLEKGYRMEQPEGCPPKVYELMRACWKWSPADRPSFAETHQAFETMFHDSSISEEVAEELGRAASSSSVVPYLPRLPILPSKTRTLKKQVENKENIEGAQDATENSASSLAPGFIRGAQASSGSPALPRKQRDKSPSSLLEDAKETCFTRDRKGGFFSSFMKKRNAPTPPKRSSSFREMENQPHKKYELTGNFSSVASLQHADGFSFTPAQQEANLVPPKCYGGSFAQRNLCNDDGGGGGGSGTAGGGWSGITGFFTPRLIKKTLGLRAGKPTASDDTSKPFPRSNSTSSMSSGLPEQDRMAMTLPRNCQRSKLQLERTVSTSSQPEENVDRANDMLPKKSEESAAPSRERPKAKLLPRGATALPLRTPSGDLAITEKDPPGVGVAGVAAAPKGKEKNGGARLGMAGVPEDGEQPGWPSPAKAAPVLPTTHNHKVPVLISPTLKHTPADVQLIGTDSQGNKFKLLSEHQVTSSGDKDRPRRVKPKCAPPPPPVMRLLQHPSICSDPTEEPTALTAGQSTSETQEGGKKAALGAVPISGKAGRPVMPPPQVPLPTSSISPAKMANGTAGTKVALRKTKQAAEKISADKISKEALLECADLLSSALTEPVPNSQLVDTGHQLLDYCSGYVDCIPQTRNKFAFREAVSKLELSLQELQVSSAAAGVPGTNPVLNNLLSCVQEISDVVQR
Outline: as §1

[16] = target ABL1(E255K)-phosphorylated
[17] = target ABL1(H396P)-nonphosphorylated
[18] = target ABL1(H396P)-phosphorylated
[19] = target ABL1(M351T)-phosphorylated
[20] = target ABL1(Q252H)-nonphosphorylated
[21] = target ABL1(Q252H)-phosphorylated
[22] = target ABL1(Y253F)-phosphorylated

% Ctrl, ABL1(E255K)-phosphorylated [1, 16]	% Ctrl, ABL1(H396P)-nonphosphorylated [2, 17]	% Ctrl, ABL1(H396P)-phosphorylated [2, 18]	% Ctrl, ABL1(M351T)-phosphorylated [3, 19]	% Ctrl, ABL1(Q252H)-nonphosphorylated [4, 20]	% Ctrl, ABL1(Q252H)-phosphorylated [4, 21]	% Ctrl, ABL1(Y253F)-phosphorylated [5, 22]	% Ctrl, EGFR ([6]; target EGFR)	% Ctrl, EGFR(G719S) ([7]; target EGFR(G719S))	% Ctrl, EGFR(L861Q) ([8]; target EGFR(L861Q))	% Ctrl, EGFR(T790M) ([9]; target EGFR(T790M))	% Ctrl, RET ([10]; target RET)	% Ctrl, RET(V804L) ([11]; target RET(V804L))	% Ctrl, KIT(D816H) ([12]; target KIT(D816H))	% Ctrl, KIT(L576P) ([13]; target KIT(L576P))	% Ctrl, FLT3(D835V) ([14]; target FLT3(D835V))	% Ctrl, ABL2 ([15]; target ABL2)	% Ctrl, ABL1(E255K)-phosphorylated ([1]; ABL1(E255K)-phosphorylated)	% Ctrl, ABL1(H396P)-nonphosphorylated ([2]; ABL1(H396P)-nonphosphorylated)	% Ctrl, ABL1(H396P)-phosphorylated ([2]; ABL1(H396P)-phosphorylated)	further results	SMILES
4.7 % Ctrl	2 % Ctrl	9.5 % Ctrl	7.3 % Ctrl	7.8 % Ctrl	5.1 % Ctrl	11 % Ctrl	94 % Ctrl	84 % Ctrl	88 % Ctrl	36 % Ctrl	42 % Ctrl	15 % Ctrl	67 % Ctrl	84 % Ctrl	0.9 % Ctrl	70 % Ctrl	–	–	–	–	Cc1cc2c([nH]1)/C=C1\C(=O)Nc3ccc(cc31)-c1c(noc1C)CNCCN(C)C2=O [Ex. 139, [3a(4)Z]-6,9,16-trimethyl-10,11,12,13-tetrahydro-2H-1,17-(ethanediylidene)[1,2]oxazolo[4,3-m]dipyrrolo[3,2-f:3′,4′-i][1,4]diazacyclopentadecine-3,8(5H,9H)-dione]
–	–	–	–	–	–	–	–	–	–	–	–	–	–	–	–	–	84 % Ctrl	64 % Ctrl	89 % Ctrl	% Ctrl, ABL1(M351T)-phosphorylated ([3]; ABL1(M351T)-phosphorylated): 78 % Ctrl; % Ctrl, ABL1(Q252H)-nonphosphorylated ([4]; ABL1(Q252H)-nonphosphorylated): 55 % Ctrl; % Ctrl, ABL1(Q252H)-phosphorylated ([4]; ABL1(Q252H)-phosphorylated): 97 % Ctrl; % Ctrl, ABL1(Y253F)-phosphorylated ([5]; ABL1(Y253F)-phosphorylated): 80 % Ctrl; % Ctrl, EGFR ([6]; EGFR): 61 % Ctrl; % Ctrl, EGFR(G719S) ([7]; EGFR(G719S)): 92 % Ctrl; % Ctrl, EGFR(L861Q) ([8]; EGFR(L861Q)): 90 % Ctrl; % Ctrl, EGFR(T790M) ([9]; EGFR(T790M)): 100 % Ctrl; % Ctrl, RET ([10]; RET): 85 % Ctrl; % Ctrl, RET(V804L) ([11]; RET(V804L)): 100 % Ctrl; % Ctrl, KIT(D816H) ([12]; KIT(D816H)): 65 % Ctrl; % Ctrl, KIT(L576P) ([13]; KIT(L576P)): 100 % Ctrl; % Ctrl, FLT3(D835V) ([14]; FLT3(D835V)): 27 % Ctrl; % Ctrl, ABL2 ([15]; ABL2): 100 % Ctrl	Cc1cc2c([nH]1)/C=C1\C(=O)Nc3ccc(cc31)-c1ccnn1CCNCCNC2=O [Ex. 43, [19a(20)Z]-2-methyl-5,6,7,8,9,10-hexahydro-15,17-(ethanediylidene)pyrazolo[1,5-g]dipyrrolo[3,4-k:2′,3′-n][1,4,7]triazacyclohexadecine-4,19(1H,18H)-dione]
–	–	–	–	–	–	–	–	–	–	–	–	–	–	–	–	–	0 % Ctrl	0.5 % Ctrl	0 % Ctrl	% Ctrl, ABL1(M351T)-phosphorylated ([3]; ABL1(M351T)-phosphorylated): 0.05 % Ctrl; % Ctrl, ABL1(Q252H)-nonphosphorylated ([4]; ABL1(Q252H)-nonphosphorylated): 0 % Ctrl; % Ctrl, ABL1(Q252H)-phosphorylated ([4]; ABL1(Q252H)-phosphorylated): 0 % Ctrl; % Ctrl, ABL1(Y253F)-phosphorylated ([5]; ABL1(Y253F)-phosphorylated): 0 % Ctrl; % Ctrl, EGFR ([6]; EGFR): 50 % Ctrl; % Ctrl, EGFR(G719S) ([7]; EGFR(G719S)): 97 % Ctrl; % Ctrl, EGFR(L861Q) ([8]; EGFR(L861Q)): 81 % Ctrl; % Ctrl, EGFR(T790M) ([9]; EGFR(T790M)): 8.5 % Ctrl; % Ctrl, RET ([10]; RET): 0 % Ctrl; % Ctrl, RET(V804L) ([11]; RET(V804L)): 0 % Ctrl; % Ctrl, KIT(D816H) ([12]; KIT(D816H)): 0.4 % Ctrl; % Ctrl, KIT(L576P) ([13]; KIT(L576P)): 4.2 % Ctrl; % Ctrl, FLT3(D835V) ([14]; FLT3(D835V)): 0 % Ctrl; % Ctrl, ABL2 ([15]; ABL2): 2.4 % Ctrl	Cc1cc2c([nH]1)/C=C1\C(=O)Nc3ccc(cc31)-c1cnn(C)c1COCCN(C)C2=O [Ex. 124, [3a(4)Z]-6,9,14-trimethyl-10,11,13,14-tetrahydro-2H-1,17-(ethanediylidene)pyrazolo[4,3-m]dipyrrolo[3,2-f:3′,4′-i][1,4]oxazacyclopentadecine-3,8(5H,9H)-dione]
6.4 % Ctrl	1.6 % Ctrl	11 % Ctrl	13 % Ctrl	4.1 % Ctrl	5.2 % Ctrl	9.1 % Ctrl	100 % Ctrl	94 % Ctrl	100 % Ctrl	100 % Ctrl	0.6 % Ctrl	3.5 % Ctrl	59 % Ctrl	0 % Ctrl	0.3 % Ctrl	40 % Ctrl	–	–	–	–	CN1CCOCCOc2cc3c(cc2Cl)NC(=O)/C3=C\c2[nH]ccc2C1=O [Ex. 143, [16a(17)Z]-19-chloro-2,5-dimethyl-6,7,9,10-tetrahydro-1H-12,14-(ethanediylidene)dipyrrolo[3,2-i:3′,4′-l][1,4,7]oxathiazacyclopentadecine-4,16(5H,15H)-dione]
